Consider one molecule from US20250098683A1 (priority 2018, published 2025).

Experiment [1] has as its system bacteria. The experiment is described as follows: Seed wash liquid streaked on LB media plates, inspected for bacterial growth. The format is cell-based. The following applies: treated five minutes, 37 C overnight.
Procedure: (§1) Carrot, Swiss chard, and spinach seeds (1 kg, 5 kg, and 5 kg respectively) were placed into separate Petri dishes. From each of these seeds, 9 samples were taken, each sample weighing 50 grams. […] The liquid of carrot and Swiss chard treatments were streaked on LB media plates, and kept in a 37 degrees Celsius incubator overnight, and inspected for bacterial growth on the following day. The treated seed were dried in 40 C oven for three days, and some seeds were placed on LB or PDA plates.
Experiment [2] relates to bacteria. The experiment is described as follows: Treated, dried seeds placed on LB or PDA plates. Type of experiment: cell-based.
Procedure: as §1

Consider `[Na+].[O-]Cl` [1.2% bleach, Sodium hypochlorite], for which the “bacteria in wash liquid after Swiss chard seeds were washed” value with bacteria [1] (Swiss chard seeds) is recorded as “some bacteria”. In the experiment with bacteria [1] (carrot seeds), the “bacteria in wash liquid after carrot seeds were washed” value is “some bacteria”. Further, the “Swiss chard seeds from which bacteria were found” value with bacteria [2] (Swiss chard seeds on LB plates) is given as “about 50%”. In addition, the “carrot seeds from which bacteria were found” value with bacteria [2] (carrot seeds, three days after placing on LB plates) was “about 50%”. Besides, the “microbes found from spinach seed” value in the experiment on bacteria [2] (spinach seeds on plates) was “both fungal and bacterial microbes were found”.
